This is an account of results in US20220257631A1, “THERAPEUTIC RNA FOR OVARIAN CANCER” (BIONTECH SE, priority 2019, published 2022).

A short description of data set [1]: Respiratory safety, plethysmography (LPT No. 30283). As to conditions: positive control 30 mg/kg b.w.
Data set [2] is described as follows: DOTMA biodistribution, LC/MS.
Data set [3] deals with antigen-specific T cells. As to the kind of experiment: IFN-γ ELISPOT of splenocytes of i.v. vaccinated A2/DR1 mice. It is filed as in vivo. As to conditions: 30 μg RNA(LIP) i.v., four to five vaccinations.
For data set [4], the system named is CD8+ T cells of healthy donors. Briefly: In vitro priming of CD8+ T cells with RBL005.2-transfected autologous mDCs, MHC-dextramer staining. It is filed as cell-based, human. As to conditions: three rounds of weekly stimulation.
For data set [5], the system named is K562-A2 cells. Briefly: TCR specificity test, IFN-γ ELISPOT with K562-A2 cells. Format: cell-based, human.
The subject of data set [6] is human DCs. Briefly: IFN-γ secretion of antigen-specific CD8+ T cells co-incubated with RBL005.2-electroporated DCs (Bio-plex). Format: cell-based. As to the method:
Antigen-specific CD8^+ T cells were co-incubated with DCs transfected with 0.25, 1, 4, or 16 μg […] different amounts of RBL005.2. As negative controls only effectors, or DCs transfected with irrelevant antigen coding RNA were used. Columns indicate means of two donors and biological duplicates.
In addition, we exemplarily tested the ability of the WAREHOUSE RNA drug product RBL005.2 to generate surface-expressed MHC-class I epitopes after electroporation of the RNAs into human DCs. This was determined by co-incubation of the transfected DCs for 24 h with isolated human CD8^+ T cells equipped with the α- and β-chain of a T-cell receptor (TCR) specific for the HLA-A*0201-restricted epitope […] (CLDN691.99). Activation of the antigen-specific cells was analyzed by IFN-γ Bio-plex bead assay (Bio-Rad Laboratories) of the cell culture supernatants. To consider donor variability each of the test items was analyzed using two different donors. RNA of ATM quality was used. The experiments were carried out using up to 16 μg of the RNAs to electroporate the DCs (Study Report No: STR_21591_003).

In the case of `CC(C[N+](C)(C)C)OC(N)=O.[Cl-]` (stereo not drawn) [Carbamyl-β-methylcholine chloride], in data set [1], the Pulmonary parameters entry is given as “expected alterations”.
Take `CCCCCCCC/C=C\CCCCCCCCOCC(C[N+](C)(C)C)OCCCCCCCC/C=C\CCCCCCCC` (centres unmarked) [DOTMA, 1,2-di-O-octadecenyl-3-trimethylammonium propane]: the “Organ with highest DOTMA findings” value in data set [2] (60 μg RNA, one or two injections, 24 h) is “highest DOTMA findings were in the spleen”. Also, the DOTMA distribution result in data set [2] (single RNA(LIP), 26 μg DOTMA, up to 28 days) is “predominantly found in spleen and liver”. Besides, the “Factor by which DOTMA is lower in other organs/tissues than spleen and liver” value in data set [2] (single dose) is listed as 10-50.
On to “RBL008.1: beta-S-ARCA(D1)-hAg-Kozak-sec-GS-p53-GS-MITD-2hBgUTR-A30L70 mRNA, encodes human p53 (SEQ ID NO: 7)”, for which the “Antigen-specific T-cell responses (IFN-γ ELISPOT)” value (shortened to “Antigen-specific T-cell responses”) in data set [3] is “induced antigen-specific T-cell responses in vivo in mice expressing human HLA-molecules”.
Regarding “RBL012.1: beta-S-ARCA(D1)-hAg-Kozak-sec-GS-PRAME-GS-MITD-2hBgUTR-A30L70 mRNA, encodes human PRAME (SEQ ID NO: 11)”, in data set [3], the “Antigen-specific T-cell responses” value is “induced antigen-specific T-cell responses in vivo in mice expressing human HLA-molecules”.

B1: RBL005.2: beta-S-ARCA(D1)-hAg-Kozak-CLDN6-2hBgUTR-A30L70 mRNA, encodes human Claudin 6 (SEQ ID NO: 3) (nucleic acid)
chain: GGGCGAACUAGUAUUCUUCUGGUCCCCACAGACUCAGAGAGAACCCGCCACCAUGGCCUCUGCCGGAAUGCAGAUCCUGGGCGUGGUGCUGACCCUGCUGGGCUGGGUGAAUGGCCUGGUGAGCUGUGCCCUGCCCAUGUGGAAGGUGACAGCCUUCAUUGGCAACAGCAUUGUGGUGGCCCAGGUGGUGUGGGAGGGCCUGUGGAUGAGCUGUGUGGUGCAGAGCACAGGCCAGAUGCAGUGCAAGGUGUAUGACAGCCUGCUGGCCCUGCCUCAGGACCUCCAGGCCGCCAGAGCCCUGUGUGUGAUUGCCCUGCUGGUGGCCCUGUUUGGCCUGCUGGUGUACCUGGCUGGAGCCAAGUGCACCACCUGUGUGGAGGAGAAGGACAGCAAGGCCAGACUGGUGCUGACCUCUGGCAUUGUGUUUGUGAUCUCUGGCGUGCUGACCCUGAUCCCUGUGUGCUGGACAGCCCAUGCCAUCAUCAGAGACUUCUACAACCCUCUGGUGGCCGAGGCCCAGAAAAGAGAGCUGGGAGCCAGCCUGUACCUGGGCUGGGCCGCCUCUGGCCUUCUUCUGCUGGGAGGAGGACUGCUGUGCUGCACCUGCCCCUCUGGCGGCAGCCAGGGCCCCAGCCACUACAUGGCCAGAUACAGCACCUCUGCCCCUGCCAUCAGCAGAGGCCCUUCUGAGUACCCCACCAAGAACUAUGUGUGAGGAGGAUCCCCUCGAGAGCUCGCUUUCUUGCUGUCCAAUUUCUAUUAAAGGUUCCUUUGUUCCCUAAGUCCAACUACUAAACUGGGGGAUAUUAUGAAGGGCCUUGAGCAUCUGGAUUCUGCCUAAUAAAAAACAUUUAUUUUCAUUGCUGCGUCGAGAGCUCGCUUUCUUGCUGUCCAAUUUCUAUUAAAGGUUCCUUUGUUCCCUAAGUCCAACUACUAAACUGGGGGAUAUUAUGAAGGGCCUUGAGCAUCUGGAUUCUGCCUAAUAAAAAACAUUUAUUUUCAUUGCUGCGUCGAGACCUGGUCCAGAGUCGCUAGCAAAAAAAAAAAAAAAAAAAAAAAAAAAAAAGCAUAUGACUAAAAAAAAAAAAAAAAAAAAAAAAAAAAAAAAAAAAAAAAAAAAAAAAAAAAAAAAAAAAAAAAAAAAAA
modifications: beta-S-ARCA cap, poly(A); CLDN6 RNA
For the molecule B1, in data set [4], the “CD8+ T cells binding HLA-A*02/RBL005.2 91-99 dextramer” value is given as 0.462%. In addition, the “Recognition of RBL005.2-transfected K562-A2 cells by isolated TCR” value in data set [5] was “specific recognition”. In addition, the “Dose dependency of IFN-γ production” value in data set [6] (0.25, 1, 4, 16 μg RNA) is listed as “clear dose dependency”. Besides, the “IFN-γ production by antigen-specific CD8+ T cells” value in data set [6] (up to 16 μg RNA electroporated, 24 h, two donors) is recorded as “able to produce IFN-γ”. Further, the “Antigen-specific T-cell responses” value in data set [3] was “induced antigen-specific T-cell responses in vivo in mice expressing human HLA-molecules”.
